Test results published in patent EP0378881B1, “Synthetic peptides and their use as universal carriers for the preparation of immunogenic conjugates suitable for the development of synthetic vaccines” ([…] S.p.A., priority 1989, dated 1993).
Entries after “also recorded” stand apart in the source; their conditions may differ. Where two headings read alike, the source gives them in different places.

What was measured:
[1] = test system: Mononucleated cells of peripheral blood (PBMC); assay type: cell-based, human
[2] = test system: T-cellular clones which are specific for TT=2; assay type: cell-based, human
[3] = test system: T-cellular clones which are specific for TT=2; assay type: cell-based, human; remark: listed apart in the source
[4] = test system: anti-CSP antibody response; conditions: cited from earlier work

Gln-Tyr-Ile-Lys-Ala-Asn-Ser-Lys-Phe-Ile-Gly-Ile-Thr-Glu (QYIKANSKFIGITE; printed: Gln-Tyr-Ile-Lys-Ala-Asn-Ser-Lys-Phe-Ile-Gly-Ile-Thr-Glu) [TT=2, synthetic peptide corresponding to TT segment 830-843]
TT=2-specific cells as share of all the T cells which were specific for the Tetanus Toxoid (TT) [1]: ≤ 5% | DR alleles in association with which the clone recognizes TT=2 [2]: DR1, 2, 4w4 and 7; also recorded: DR5JVM and 6 | DR alleles that can be used as restriction molecules [2]: DR1-9, 4 x 4, 5JVM and DRw52b | concentrations of the peptide at which all the clones react (dose-response plot) [2]: 0.1 to 2 µM | isotype of the II-class molecules recognized by the clones [2]: restricted DRs | proliferation of the isolated clones in response to the antigen [2]: proliferate responsively | minimum antigenic sequence (epitope) recognized by the T-cells [3]: single 831-842 epitope

H-(Asn-Ala-Asn-Pro)n
anti-CSP antibody response ([4]; CBA/ca mice): not able to induce | anti-CSP antibody response ([4]; DBA/2 mice): not able to induce

NANP₄₀: polymer (Asn-Ala-Asn-Pro)₄₀ obtained by polymerizing the activated monomer
responder status of the mouse strain ([4]; C57/8L/6 mice): natural responders | responder status of the mouse strain ([4]; CB4/ca mice): non-responders | responder status of the mouse strain ([4]; DBA/2 mice): non-responders
